Assay results published in US8389739B1, “Modulators of retinoid-related orphan receptor gamma” (Orphagen Pharmaceuticals, priority 2006, dated 2013).
Several values for one entry are separate records, joined by “and”; a condition that tells them apart may be missing. Equal entries are not always repeated. Entries after “also recorded” stand apart in the source; their conditions may differ.

Tests used:
[1] = test system: EAE; details: mouse, in vivo; cited from earlier work
[2] = test system: liver triglyceridemia; details: mice lacking the LXRα and LXRβ receptors; cited from earlier work
[3] = test system: IL-17 release in lymph node cultures; assay: Lymph node cell cultures from MOG35-55 immunized C57BL/6 mice, IL-17 ELISA; assay type: cell-based; details: Mus musculus, 72 h; MOG and IL-23, 3 days, dose-response (FIG. 13F); read-out: EC50 for inhibition of IL-17 production
Description: FIGS. 13A-F. IL-17 levels in lymph node cells from mice immunized with myelin-derived peptides respond to cognate peptide antigens, IL-23 and RORγ ligands. (FIG. 13A) SJL/J mice were immunized by complete Freund's adjuvant (CFA) only or by Proteolipid Protein residues 139-151 (PLP139-151) emulsified in CFA. Lymph nodes were cultured for 3 days in with or without 40 μg/ml PLP in the presence or absence of OR-885. Culture media were analyzed by ELISA for IL-17. (FIGS. 13B-C) Lymph node cells from PLP-immunized SJL/J mice were cultured as before with the addition of 10 ng/ml IL-23 and 3 μM compounds. At the end of 1 day or 3 days in culture, Th-17 (CD4^+CD8^−IL17^+) cell frequency was measured by FACS (FIG. 13B) and compared to IL-17 levels in culture media (FIG. 13C). (FIGS. 13D-F) Lymph node cells from MOG35-55 immunized C57BL/6 mice were cultured for 3 days with 30 μg/ml MOG and/or 10 ng/ml IL-23. RORγ ligands were not added (FIG. 13D), or added at the beginning of the culture at a single concentration (FIG. 13E, 1 μM) or in multiple doses (FIG. 13F). […]
Overall, cultured lymph node cells that are stimulated with IL-23 and peptide antigens provide a model system to examine IL-17 production ex vivo (FIG. 13D). We analyzed a variety of RORγ ligands for their ability to regulate IL-17 (FIG. 13E). […] This potency is consistent with that measured in the CHO cell transcription assay.

[4] = test system: CIA; assay: Collagen-induced arthritis (CIA) in DBA/1 mice; assay type: in vivo; details: 100 mg/kg/day OR-1050 p.o. in HRC-6; AUC day 24 to 48, p<0.09
[5] = test system: EAE; assay: EAE model, C57BL/6 mice immunized with MOG35-55; assay type: in vivo; details: for median day of onset of symptoms (clinical score 1 or greater): oral gavage twice a day, corn oil vehicle day 18
[6] = test system: TH-17 cells; assay: TH-17 cell frequency in lymph nodes of PLP-immunized SJL/J mice; assay type: in vivo; details: 100 mg/kg OR-1050 in HRC-6 daily, day 9 after PLP immunization; fraction of total CD4+ cells
Description: FIGS. 11D-F SJL/J mice were immunized with 75 μg PLP139-151 (Day 0). Osmotic pumps delivering vehicle or OR-1050 ([…]) were inserted at Days 3 and 4. Day of onset (FIG. 11E) compares the first day when EAE severity is 1 or higher. The ratio of Th-17 cells (CD4^+CD8^−IL17^+) to […] was analyzed in a separate study (F FIG. 11F) at day 9 after immunization with PLP where mice had been dosed daily with OR-1050 (100 mg/kg in HRC-6) since […]. Statistics (panels A, B, D, F) were performed by Student's t-test. *, P<0.05; #, P<0.01 (mean±sem, n=7-10) or by the Mann-Whitney rank order test (FIGS. 11C, E, median values shown).
Since OR-1050 inhibits TH-17 cells in ex vivo culture, we also investigated whether TH-17 cell frequency was affected in OR-1050-treated animals. SJL/J female mice (n=9/group) were treated with 100 mg/kg OR-1050 in HRC-6 beginning two days before immunization with PLP (as described above) and continuing until 8 days after immunization. Animals were sacrificed on day 9, and TH-17 cells analyzed from pooled axillary, brachial, and inguinal lymph nodes from each animal. We found a 35% reduction in TH-17 frequency in lymph nodes of SJL/J mice (FIG. 11F) as a fraction of the total CD4^+ cell population. The change in TH-17 frequency with OR-1050 treatment was statistically significant.

[7] = Pharmacokinetics of OR-1050 in CD-1 mice, oral gavage; assay type: in vivo
Description: FIG. 12B. Bioavailability of OR-1050. OR-1050 was dosed in CD-1 mice at […] in HRC-6, a proprietary formulation that is commercially available from Pharmatek (San Diego, Calif.). Blood samples from triplicate animals were tested for levels of OR-1050 at multiple time points.
Pharmacokinetics of OR-1050 in CD-1 mice was analyzed at independent bioanalytical laboratory. Male CD-1 mice were treated via oral gavage with OR-1050 at 5 mg/kg in HRC-6. Blood was collected via retro-orbital puncture in tubes containing sodium heparin anticoagulant at 0, 5, 15, and 30 min, and at 1, 2, 4, 6, 8 and 24 hr after oral administration. The concentration of OR-1050 in plasma was determined using an HPLC/MS/MS method.

[8] = test system: liver triglycerides; assay: Liver triglycerides after oral dosing in C57BL/6 mice; assay type: in vivo
Description: […] A small piece of the liver (˜200 mg) was weighed and extracted to determine triglyceride content. Glycerol was liberated from liver triglycerides by hydrolysis in base. The liver fragment was incubated overnight at 55° C. in 0.35 mls of ethanolic KOH (2 parts EtOH: 1 part 30% KOH) in a closed tube. A solution of 50% ethanol in water was added to bring the volume of each tube to 1.0 ml. The solution was cleared of debris by centrifugation, and the resulting supernatant increased to 1.2 ml with further addition of 50% ethanol. Aqueous 1 M MgCl2 (215 μl) was added to 200 μl of the supernatant, and the mixture was cleared by centrifugation again after standing 10 min on ice. Glycerol levels were measured with the Sigma Free Glycerol Reagent (Sigma-Aldrich, St. Louis, Mo.) according to the manufacturer's instructions. The triglyceride concentration (in milligrams per gram of liver wet weight) was determined by assuming average molecular weight of 1000 daltons for each molecule of triglyceride.

SMILES: O=S(=O)(c1ccccc1)N(CC(F)(F)F)c1ccc(C(O)(C(F)(F)F)C(F)(F)F)cc1 [Compound T0901317, N-(2,2,2-Trifluoro-ethyl)-N-[4-(2,2,2-trifluoro-1-hydroxy-1-trifluoromethyl-ethyl)-phenyl]-benzenesulfonamide, reference compound]
- development of murine EAE [1]: inhibit the development of murine EAE
- liver triglyceridemia [2]: no effect on liver triglyceridemia

SMILES: C[C@@H]1CC[C@@]2(OC1)O[C@H]1C[C@H]3[C@@H]4CC[C@H]5C[C@@H](O)CC[C@]5(C)[C@H]4C[C@@H](O)[C@]3(C)[C@H]1[C@@H]2C [OR-885, 5α,20α, 22α, 25D-SPIROSTAN-3β, 12β-DIOL]
- EC50 [3]: ~200 nM

SMILES: CCN(c1ccc(C(O)(C(F)(F)F)C(F)(F)F)cc1)S(=O)(=O)c1ccc([N+](=O)[O-])cc1 [OR-1050, N-Ethyl-4-nitro-N-[4-(2,2,2-trifluoro-1-hydroxy-1-trifluoromethyl-ethyl)-phenyl]-benzenesulfonamide]
- disease course of CIA (hind limb clinical scores) [4]: partly suppressed
- median day of onset of symptoms (clinical score 1 or greater) ([5]; 30 mg/kg total daily dose): 16 days
- onset of EAE, in words ([5]; 100 mg/kg OR-1050 per day versus vehicle): slows the onset of EAE; also recorded: significantly (p<0.05) delayed
- median day of onset of symptoms (clinical score 1 or greater) ([5]; 100 mg/kg total daily dose, p<0.05): 26 days
- progress of disease and weight loss, in words ([5]; high dose (50 mg/kg, 2× per day), FIG. 11A, 11B): inhibits progress of the disease and weight loss
- inflammatory infiltration in the spinal cord ([5]; high dose, FIG. 11C, p<0.07, Mann-Whitney): reduced
- reduction in TH-17 frequency in lymph nodes [6]: 35%
- blood levels suggested for a higher dosage ([7]; extrapolated to 50 mg/kg): 1 μg/ml and ~2 μM
- oral bioavailability, in words ([7]; mouse, in vivo, po): modest bioavailability; also recorded: orally-bioavailable; also recorded: orally bioavailable
- Liver triglycerides ([8]; OR-1050 100 mg/kg (50 mg/kg twice per day by gavage, corn oil) for 7 days, vehicle 34.7 ± 5.7): 119.5 ± 18.8 mg/g
- liver triglycerides, in words ([8]; daily exposure to 100 mg/kg OR-1050, six day study): markedly elevated
